From patent publication US10907208B2, “Method for screening agents promoting skin barrier function and method for evaluating skin barrier function taking epidermal serine racemase and/or D-serine level as indicator” (Shiseido Company, Ltd, priority 2014, dated 2021)

Columns and labels:
Assay type in all cases: cell-based, human
cornuline (CRNN) gene = assay: Real-time PCR gene expression in three-dimension culture of keratinocytes (3D skin model), cornuline; details: D-Ser 100 μM, 7 days, corrected by MRPL19, FIG. 6
Protocol: (§1) Human normal keratinocytes were seeded on polycarbonate insert (Millipore) having 12 mm of diameter and 0.4 μm of bore diameter. Then, Human normal keratinocytes were cultured for three days under 5% CO2 atmosphere at 37° C. by adding Cnt-Prime, Epithelial Culture Medium (CELLnTEC Advanced Cell Systems AG) inside and outside of the insert, followed by being cultured for 24 hours by substituting with Cnt-prime 3D Barrier medium (CELLnTEC Advanced Cell Systems AG). […]
(§2) Total RNA extracted by means of Trizol reagent (Invitrogen) was subjected to NanoDrop 1000 Spectrophotometer (Thermo Fisher Scientific) to determine RNA concentration, and then was converted to cDNA by using SuperScriptVIL0 (Invitrogen). Relative expression amount of genes of fillagrin (FLG), cornuline (CRNN) and repetin (RPTN), and mitochondrial ribosome protein L19 (MRPL19) which was used as an internal control gene was determined. […]
(§3) Relative expression amount of the target gene of each group was determined by means of correction using the expression amount of mitochondrial ribosome protein L19 gene (MRPL19) as an internal control (FIGS. 5-7). […]

repetin (RPTN) gene = assay: Real-time PCR gene expression in three-dimension culture of keratinocytes (3D skin model), repetin; details: D-Ser 100 μM, 7 days, corrected by MRPL19, FIG. 7
Protocol: as §1, §2, §3

fillagrin (FLG) gene = assay: Real-time PCR gene expression in three-dimension culture of keratinocytes (3D skin model), fillagrin; details: D-Ser 100 μM, 7 days, corrected by MRPL19, FIG. 5
Protocol: as §1, §2, §3

N[C@H](CO)C(=O)O [D-serine]
expression level of cornuline gene (cornuline (CRNN) gene): increases
expression level of cornuline gene (cornuline (CRNN) gene; listed as D-Ser): increased
expression level of repetin gene (repetin (RPTN) gene): increases
expression level of repetin gene (repetin (RPTN) gene; listed as D-Ser): increased
expression level of fillagrin gene (fillagrin (FLG) gene): increases
expression level of fillagrin gene (fillagrin (FLG) gene; listed as D-Ser): increased
